Results reported in patent US6858591B2, “Antibiotic AA 896 analogs” (Wyeth Holdings Corporation, priority 2001, dated 2005).
Values after ≈ are worked out from the molar mass of the structure shown. Read-outs that look alike come from different tables or passages of the source.

What was measured:
Test in all cases: In vitro MIC, broth dilution
Type in all cases: cell-based
E. coli GC 2203 = conditions: E. coli GC 2203
P. aeruginosa GC 2214 = conditions: P. aeruginosa GC 2214
S. aureus GC 4536 = conditions: S. aureus GC 4536
Summary of the method: (§1)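 Susceptibility testing used the NCCLS broth dilution method. Antibiotic spanned 64-0.06 μg/ml against an inoculum of 5×10^5 CFU/ml in Mueller-Hinton II; after 18 hours at 35° C the lowest concentration without growth gave the MIC.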

CNS GC 4547 = tested on: CNS GC 4547
Summary of the method: as §1

S. aureus GC 2216 = conditions: S. aureus GC 2216
Summary of the method: as §1

E. faecalis GC 4555 = conditions: E. faecalis GC 4555
Summary of the method: as §1

CNS GC 4538 = tested on: CNS GC 4538
Summary of the method: as §1

CNS GC 4537 = tested on: CNS GC 4537
Summary of the method: as §1

E. faecalis GC 2242 = conditions: E. faecalis GC 2242
Summary of the method: as §1

E. faecalis GC 842 = conditions: E. faecalis GC 842
Summary of the method: as §1

S. aureus GC 1131 = conditions: S. aureus GC 1131
Summary of the method: as §1

C. albicans GC 3066 = conditions: C. albicans GC 3066
E. cloacae GC 3783 = conditions: E. cloacae GC 3783
E. coli GC 4560 = conditions: E. coli GC 4560
P. aeruginosa GC 4532 = conditions: P. aeruginosa GC 4532
E. coli GC 3226 = conditions: E. coli GC 3226
K. pneumoniae GC 4534 = conditions: K. pneumoniae GC 4534
E. coli GC 4559 = conditions: E. coli GC 4559
S. marcescens GC 4077 = conditions: S. marcescens GC 4077
M. morganii GC 4531 = conditions: M. morganii GC 4531
[1] = Escherichia coli, GC2203, read-out: MIC
[2] = Pseudomonas aeruginosa, GC2214, read-out: MIC
[3] = Staphylococcus aureus, GC4536, read-out: MIC
[4] = Staphylococcus aureus, GC2216, read-out: MIC
[5] = Enterococcus faecalis, GC4555, read-out: MIC
[6] = Enterococcus faecalis, GC2242, read-out: MIC
[7] = Enterococcus faecalis, GC842, read-out: MIC
[8] = Staphylococcus aureus, GC1131, read-out: MIC
[9] = Candida albicans, GC3066, read-out: MIC
[10] = Enterobacter cloacae, GC3783, read-out: MIC
[11] = Escherichia coli, GC4560, read-out: MIC
[12] = Pseudomonas aeruginosa, GC4532, read-out: MIC
[13] = Escherichia coli, GC3226, read-out: MIC
[14] = Klebsiella pneumoniae, GC4534, read-out: MIC
[15] = Escherichia coli, GC4559, read-out: MIC
[16] = Serratia marcescens, GC4077, read-out: MIC
[17] = Morganella morganii, GC4531, read-out: MIC

Row | Compound | MIC (E. coli GC 2203; [1]) | MIC (P. aeruginosa GC 2214; [2]) | MIC (S. aureus GC 4536; [3]) | MIC (CNS GC 4547; CNS GC 4547, read-out: MIC) | MIC (S. aureus GC 2216; [4]) | MIC (E. faecalis GC 4555; [5]) | MIC (CNS GC 4538; CNS GC 4538, read-out: MIC) | MIC (CNS GC 4537; CNS GC 4537, read-out: MIC) | MIC (E. faecalis GC 2242; [6]) | MIC (E. faecalis GC 842; [7]) | MIC (S. aureus GC 1131; [8]) | MIC (C. albicans GC 3066; [9]) | MIC (E. cloacae GC 3783; [10]) | MIC (E. coli GC 4560; [11]) | MIC (P. aeruginosa GC 4532; [12]) | MIC (E. coli GC 3226; [13]) | MIC (K. pneumoniae GC 4534; [14]) | MIC (E. coli GC 4559; [15]) | MIC (S. marcescens GC 4077; [16]) | MIC (M. morganii GC 4531; [17]) | also measured
1 | CCOC(=O)C(NCCCNC(=O)[C@@H](N)CC(C)C)[C@@H](OC(C)=O)[C@H]1O[C@@H](n2ccc(=O)[nH]c2=O)[C@H](OC(C)=O)[C@@H]1OC(C)=O (stereo partly drawn) [Example 40, Ethyl (3R)-3-(acetyloxy)-2-[(3-{[(2S)-2-amino-4-methylpentanoyl]amino}propyl)amino]-3-[(2R,3R,4R,5R)-3,4-bis(acetyloxy)-5-(2,4-dioxo-3,4-dihydro-1(2H)-pyrimidinyl)tetrahydro-2-furanyl]propanoate] | > 128 µg/mL | 128 µg/mL (≈ 199 µM) | > 128 µg/mL | > 128 µg/mL | > 128 µg/mL | > 128 µg/mL | > 128 µg/mL | > 128 µg/mL | 128 µg/mL (≈ 199 µM) | > 128 µg/mL | > 128 µg/mL | > 128 µg/mL | > 128 µg/mL | > 128 µg/mL | 128 µg/mL (≈ 199 µM) | > 128 µg/mL | > 128 µg/mL | > 128 µg/mL | > 128 µg/mL | > 128 µg/mL | –
2 | CCOC(=O)C(NCCCNC(=O)[C@H](CC(C)C)NC(=O)[C@H](CCCNC(=N)N[N+](=O)O)NC(=O)N[C@H](C(=O)OCc1ccccc1)C(C)C)C(OC(C)=O)[C@H]1O[C@H](n2ccc(=O)[nH]c2=O)[C@H](OC(C)=O)[C@@H]1OC(C)=O (stereo partly drawn) [Example 41, 19-Benzyl 5-ethyl (4R,12S,15S,19S)-4-[(2R,3R,4R,5S)-3,4-bis(acetyloxy)-5-(2,4-dioxo-3,4-dihydro-1(2H)-pyrimidinyl)tetrahydro-2-furanyl]-15-(3-{[(2,2-dioxido-2lambda˜1˜-diazanyl)(imino)methyl]amino}propyl)-12-isobutyl-20-methyl-2,11,14,17-tetraoxo-3-oxa-6,10,13,16,18-pentaazahenicosane-5,19-dicarboxylate] | > 128 µg/mL | 128 µg/mL | > 128 µg/mL | – | > 128 µg/mL | > 128 µg/mL | – | – | 128 µg/mL | > 128 µg/mL | > 128 µg/mL | 128 µg/mL | > 128 µg/mL | > 128 µg/mL | 128 µg/mL | > 128 µg/mL | > 128 µg/mL | > 128 µg/mL | > 128 µg/mL | > 128 µg/mL | MIC (CNS GC 4547): > 128 µg/mL; MIC (CNS GC 4538): > 128 µg/mL; MIC (CNS GC 4537): > 128 µg/mL
3 | CCOC(=O)C(NCCCNC(=O)[C@H](CC(C)C)NC(=O)[C@H](CCCNC(=N)N[N+](=O)[O-])NC(=O)N[C@H](C(=O)OCc1ccccc1)C(C)C)[C@@H](OC(C)=O)[C@H]1O[C@@H](n2ccc(=O)[nH]c2=O)[C@H](OC(C)=O)[C@@H]1OC(C)=O (stereo partly drawn) [Example 42, 1-Benzyl 17-ethyl (2S,6S,9S)-16-{(R)-(acetyloxy)[(2R,3R,4R,5R)-3,4-bis(acetyloxy)-5-(2,4-dioxo-3,4-dihydro-1(2H)-pyrimidinyl)tetrahydro-2-furanyl]methyl}-6-(3-{[(2,2-dioxido-2lambda˜1˜-diazanyl)(imino)methyl]amino}propyl)-9-isobutyl-2-isopropyl-4,7,10-trioxo-3,5,8,11,15-pentaazaheptadecane-1,17-dioate] | – | – | – | – | – | – | – | – | – | – | – | – | – | – | – | – | – | – | – | – | MIC (E. coli GC 2203): >128 µg/mL; MIC (P. aeruginosa GC 2214): 128 µg/mL (≈ 119 µM); MIC (S. aureus GC 4536): >128 µg/mL; MIC (CNS GC 4547; CNS GC 4547): 128 µg/mL (≈ 119 µM); MIC (S. aureus GC 2216): >128 µg/mL; MIC (E. faecalis GC 4555): 128 µg/mL (≈ 119 µM); MIC (CNS GC 4538; CNS GC 4538): >128 µg/mL; MIC (CNS GC 4537; CNS GC 4537): >128 µg/mL; MIC (E. faecalis GC 2242): 64 µg/mL (≈ 59.5 µM); MIC (E. faecalis GC 842): 128 µg/mL (≈ 119 µM); MIC (S. aureus GC 1131): >128 µg/mL; MIC (C. albicans GC 3066): 128 µg/mL (≈ 119 µM); MIC (E. cloacae GC 3783): 128 µg/mL (≈ 119 µM); MIC (E. coli GC 4560): 128 µg/mL (≈ 119 µM); MIC (P. aeruginosa GC 4532): 128 µg/mL (≈ 119 µM); MIC (E. coli GC 3226): 128 µg/mL (≈ 119 µM); MIC (K. pneumoniae GC 4534): 128 µg/mL (≈ 119 µM); MIC (E. coli GC 4559): >128 µg/mL; MIC (S. marcescens GC 4077): 128 µg/mL (≈ 119 µM); MIC (M. morganii GC 4531): 128 µg/mL (≈ 119 µM)
4 | CCOC(=O)C(NCCCNC(=O)[C@@H](NC(=O)[C@H](CCCNC(=N)N)NC(=O)N[C@H](C(=O)O)C(C)C)[C@@H](O)C(C)C)[C@@H](O)[C@H]1O[C@@H](n2ccc(=O)[nH]c2=O)[C@H](OC(C)=O)[C@@H]1OC(C)=O (stereo partly drawn) [Example 43, (2S,6S,9S)-6-(3-{[Amino(imino)methyl]amino}propyl)-16-[(R)-[(2R,3R,4R,5R)-3,4-bis(acetyloxy)-5-(2,4-dioxo-3,4-dihydro-1(2H)-pyrimidinyl)tetrahydro-2-furanyl](hydroxy)methyl]-9-[(1S)-1-hydroxy-2-methylpropyl]-2-isopropyl-4,7,10,17-tetraoxo-18-oxa-3,5,8,11,15-pentaazaicosan-1-oic acid] | > 128 µg/mL | 128 µg/mL (≈ 140 µM) | > 128 µg/mL | > 128 µg/mL | > 128 µg/mL | > 128 µg/mL | > 128 µg/mL | > 128 µg/mL | > 128 µg/mL | > 128 µg/mL | > 128 µg/mL | 128 µg/mL (≈ 140 µM) | > 128 µg/mL | > 128 µg/mL | 128 µg/mL (≈ 140 µM) | > 128 µg/mL | > 128 µg/mL | > 128 µg/mL | > 128 µg/mL | > 128 µg/mL | –
5 | COc1ccc(Cn2c(=O)ccn([C@@H]3OC([C@H](O)[C@H](NCCCNC(=O)[C@@H](NC(=O)OCc4ccccc4)[C@H](C)O)C(=O)OC(C)(C)C)[C@@H](O)[C@H]3O)c2=O)cc1 (stereo partly drawn) [Example 44, tert-Butyl (5S,12S)-12-[(R)-[(3S,4R,5R)-3,4-dihydroxy-5-(3-(4-methoxybenzyl)-2,4-dioxo-3,4-dihydro-1(2H)-pyrimidinyl)tetrahydro-2-furanyl](hydroxy)methyl]-5-[(1S)-1-hydroxyethyl]-3,6-dioxo-1-phenyl-2-oxa-4,7,11-triazatridecan-13-oate] | > 128 µg/mL | 128 µg/mL (≈ 163 µM) | > 128 µg/mL | > 128 µg/mL | > 128 µg/mL | 128 µg/mL (≈ 163 µM) | > 128 µg/mL | > 128 µg/mL | 64 µg/mL (≈ 81.4 µM) | 128 µg/mL (≈ 163 µM) | > 128 µg/mL | 128 µg/mL (≈ 163 µM) | > 128 µg/mL | 128 µg/mL (≈ 163 µM) | 128 µg/mL (≈ 163 µM) | > 128 µg/mL | > 128 µg/mL | > 128 µg/mL | 128 µg/mL (≈ 163 µM) | 128 µg/mL (≈ 163 µM) | –
